Measurements from paper PMC7956620 (Molecules, 2021).
Numbering of substitutions follows the chain as printed.

How the values were obtained:
Type in all cases: cell-based
[1] = target: T1, 5-HT3A receptor V133A mutant (Homo sapiens, UniProt P46098, V128A); test: two-electrode voltage clamp, V133A mutant receptor in Xenopus oocytes; conditions: 100 µM chanoclavine, read-out: Inhibition Percentage (%)
T1 construct: host or cells: Xenopus laevis oocytes injected with in vitro transcribed mRNA
T1 sequence (P46098 24-478 V128A): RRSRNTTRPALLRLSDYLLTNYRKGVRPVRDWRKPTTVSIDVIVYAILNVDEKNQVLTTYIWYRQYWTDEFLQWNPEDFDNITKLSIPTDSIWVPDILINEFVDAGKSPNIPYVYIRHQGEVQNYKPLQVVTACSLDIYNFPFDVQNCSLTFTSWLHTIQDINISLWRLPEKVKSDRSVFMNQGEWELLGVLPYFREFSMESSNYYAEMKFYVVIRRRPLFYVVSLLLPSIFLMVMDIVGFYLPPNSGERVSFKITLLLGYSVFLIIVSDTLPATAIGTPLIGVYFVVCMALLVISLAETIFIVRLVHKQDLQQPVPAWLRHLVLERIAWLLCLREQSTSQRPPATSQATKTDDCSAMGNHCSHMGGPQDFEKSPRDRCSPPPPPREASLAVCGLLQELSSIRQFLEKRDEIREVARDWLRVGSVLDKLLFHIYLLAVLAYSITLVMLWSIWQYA
Procedure: (§1) The site-directed mutation of one or two amino acids was performed using sense and antisense primers and Pfu polymerase (QuickChange Site-Directed Mutagenesis Kit; Agilent, Santa Clara, CA, USA) and amplified by polymerase chain reaction (PCR) to increase the target domain. After removing the existing methylated cDNA using Dpn Ⅰ, the PCR products were transformed into Escherichia coli strain DH5α. The cDNA of the 5-HT3A receptor was linearized by Xho Ⅰ at the end of the multi-cloning site, followed by transcription using T7 polymerase and a transcription kit (mMESSAGE mMACHINE T7 Transcription Kit; Thermo Fisher Scientific, Waltham, MA, USA). […]
(§2) To isolate oocytes, female Xenopus laevis were put into a container filled with ice and left for about one hour. […] When the Xenopus oocytes were ready for injection, 50 ng of mRNA was injected with a nanoliter injector (Drummond Scientific, Vernon Hills, IL, USA). […]
(§3) The oocytes in which mRNA was expressed during the incubation period allowed for the estimation of channel or receptor properties for observing drug and ligand potential interactions using a two-electrode voltage clamp (OC-725C; Warner Instruments, Hamden, CT, USA) and Digidata (1322A; Molecular Devices, Sunnyvale, CA, USA). […] The voltage and current electrodes were filled with 3 M KCl (0.3–0.7 MΩ) and analyzed at a −80 mV holding potential. […]

[2] = target: T2, 5-HT3A receptor N138A mutant (Homo sapiens, UniProt P46098, N133A); test: two-electrode voltage clamp, N138A mutant receptor in Xenopus oocytes; conditions: 100 µM chanoclavine, read-out: Inhibition Percentage (%)
T2 construct: host or cells: Xenopus laevis oocytes injected with in vitro transcribed mRNA
T2 sequence (P46098 24-478 N133A): T1 sequence (P46098 24-478 V128A) with A105V, N110A
Procedure: as §1, §2, §3

[3] = target: T3, 5-HT3A receptor F130A+N138A double mutant (Homo sapiens, UniProt P46098, F125A/N133A); test: two-electrode voltage clamp, F130A+N138A double mutant receptor in Xenopus oocytes; conditions: 300 µM chanoclavine with 5-HT
T3 construct: host or cells: Xenopus laevis oocytes injected with in vitro transcribed mRNA
T3 sequence (P46098 24-478 F125A/N133A): T1 sequence (P46098 24-478 V128A) with F102A, A105V, N110A
Procedure: as §1, §2, §3

## CN[C@@H]1Cc2c[nH]c3cccc(c23)[C@H]1/C=C(\C)CO [chanoclavine]
[1]
  inhibition at 100 µM: 67.2 ± 9.9%
[2]
  inhibition at 100 µM: -1.64 ± 6.2%
[3]
  effect on inward current: not significantly decreased
